Experimental findings from US20260256807A1, “SUBSTITUTED PYRAZOLES AND IMIDAZOLES AS OREXIN RECEPTOR ANTAGONISTS COMPOSITION, METHODS FOR TREATING NEUROLOGICAL AND PSYCHOLOGICAL DISORDERS” (HAGER BIOSCIENCES, LLC, priority 2022, published 2026) are described below.

Molecules are shown by their SMILES.

One assay deals with T1, human orexin-1 receptor (Homo sapiens, UniProt O43613).
T1 construct: expressed in transfected cells; host or cells: CHO cells (G418 selection)
T1 sequence (O43613 1-425): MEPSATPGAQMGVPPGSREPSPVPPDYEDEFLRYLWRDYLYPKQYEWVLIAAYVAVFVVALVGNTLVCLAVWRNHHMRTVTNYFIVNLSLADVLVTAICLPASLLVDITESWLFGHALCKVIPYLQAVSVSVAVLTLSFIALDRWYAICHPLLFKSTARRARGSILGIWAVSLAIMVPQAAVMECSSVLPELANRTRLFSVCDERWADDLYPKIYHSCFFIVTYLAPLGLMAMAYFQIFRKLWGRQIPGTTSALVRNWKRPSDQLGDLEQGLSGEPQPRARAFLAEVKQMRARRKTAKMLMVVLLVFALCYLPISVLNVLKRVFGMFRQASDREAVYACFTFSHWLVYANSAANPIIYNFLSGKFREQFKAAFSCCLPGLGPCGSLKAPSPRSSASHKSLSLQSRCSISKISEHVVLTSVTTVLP
The experiment in a line: Intracellular calcium (FLIPR) antagonist assay, CHO cells expressing human orexin-1 receptor, 3 nM orexin-A. Format: cell-based. To be noted: CHO, 1 uM compound, orexin-A 3 nM, read-out: OXIR % Inh. @ 1 uM. As to the method:
(§1) Antagonistic activities on both orexin receptors (i.e., to identify Orexin Receptor Antagonists) have been measured for each example compound using the in vitro assays (intracellular calcium measurements) as described herein. Other assays may also be used to identify Orexin Receptor Antagonists as would be understood by those of ordinary skill in the art. Chinese hamster ovary (CHO) cells expressing the human orexin-1 receptor and the human orexin-2 receptor, respectively, are grown in culture medium (Ham F-12 with L-Glutamine) containing 300 μg/mL G418, 100 U/mL penicillin, 100 μg/mL streptomycin and 10% heat inactivated fetal calf serum (FCS). The cells are seeded at 20′000 cells/well into 384-well black clear bottom sterile plates (Greiner). The seeded plates are incubated overnight at 37° C. in 5% CO2. Human orexin-A as an agonist is prepared as 1 mM stock solution in MeOH: water (1:1), diluted in HBSS containing 0.1% bovine serum albumin (BSA), NaHC03: 0.375 g/L and 20 mM HEPES for use in the assay at a final concentration of 3 nM.
(§2) Antagonists were prepared as 10 mM stock solution in DMSO, then diluted in 384-well plates using DMSO followed by a transfer of the dilutions into in HBSS containing 0.1% bovine serum albumin (BSA), NaHC03: 0.375 g/L and 20 mM HEPES. On the day of the assay, 50 μL of staining buffer (HBSS containing 1% FCS, 20 mM HEPES, NaHC03: 0.375 g/L, 5 mM probenecid (Sigma) and 3 μM of the fluorescent calcium indicator fluro-4 AM (1 mM stock solution in DMSO, containing 10% pluronic) is added to each well. The 384-well cell-plates are incubated for 50 min at 37° C. in 5% C02 followed by equilibration at RT for 30 min before measurement. Within the Fluorescent Imaging Plate Reader (FLIPR Tetra, Molecular Devices), potential Orexin Receptor Antagonists were added to the plate in a volume of 10 μl/well, incubated for 120 min and finally 10 μL/well of agonist is added. Fluorescence was measured for each well at 1 second intervals, and the height of each fluorescence peak compared to the height of the fluorescence peak induced by 3 nM orexin-A with vehicle in place of antagonist. The IC50 value (the concentration of compound needed to inhibit 50% of the agonistic response) was determined and normalized using the obtained IC50 value of an on-plate reference compound. Optimized conditions were achieved by adjustment of pipetting speed and cell splitting regime. The calculated IC50 values fluctuate depending on the daily cellular assay performance, as is known to those skilled in the art. In the case where IC50 values have been determined several times for the same compound, the geometric mean has been given.
For the molecule `C[C@@H]1CCN(c2cnc(C(F)(F)F)cn2)CCN1C(=O)c1nn2c(c1-c1ccccc1)OCCC2` [Example 84], the inhibition at 1 µM turned out to be 71%.
For `C[C@@H]1CCN(c2cnc(C(F)(F)F)cn2)CCN1C(=O)c1c(-c2ccccn2)nn2ccccc12` [Example 87], the inhibition at 1 µM stood at 83%.
Still for that read-out and setting: the same measure for `O=C(c1c(-c2ccccc2F)nn2c1COCC2)N1CC2CN(c3nc4cc(Cl)ccc4o3)CC2C1` (stereo not shown) [Example 51]: 38.5%; for `Cc1cc(C)nc(N2CC[C@@H](C)N(C(=O)c3nn4c(c3-c3ccccc3)COCC4)CC2)n1` [Example 70]: 27%.
As to `COc1ccc(N2CC[C@@H](C)N(C(=O)c3c(-c4ccccc4)nc4ccccn34)CC2)cn1` [Example 22], the inhibition at 1 µM came to 15%.
The same measure, in the same setting: the same measure for `Cc1cc(C)nc(N2CC3CN(C(=O)c4c(-c5ccc(F)cc5)nn5c4COCC5)CC3C2)n1` (stereo not shown) [Example 39]: 14.9%.
As to `Cc1cc(C)nc(N2CC[C@@H](C)N(C(=O)c3c(-c4ccccn4)nn4ccccc34)CC2)n1` [Example 75], the inhibition at 1 µM was 79%.
Take `C[C@@H]1CCN(c2ccc(C(F)(F)F)cn2)CCN1C(=O)c1c(-c2ccccc2)nn2cccnc12` [Example 66]: the inhibition at 1 µM was determined as 99%.
On to `Cc1cc(C)nc(N2CC3CN(C(=O)c4c(-c5ccccc5)nc5ccccn45)CC3C2)n1` (stereo not shown) [Example 43], for which the inhibition at 1 µM was determined as 19.6%.
With `Cc1cc(C)nc(N2CC3CN(C(=O)c4ccccc4-c4cnc5ccccn45)CC3C2)n1` (stereo not shown) [Example 38], the inhibition at 1 µM is 6.86%.
On to `COc1ccc(N2CC[C@@H](C)N(C(=O)c3nc4ccccn4c3-c3ccccc3)CC2)nc1` [Example 77], for which the inhibition at 1 µM is 38%.
Consider `C[C@@H]1CCN(c2nc3cc(Cl)ccc3o2)CCN1C(=O)c1c(-c2ccccc2)nc2n1CCCC2` [Example 6], for which the inhibition at 1 µM amounted to 62.5%.
Still for that read-out and setting: to `C[C@@H]1CCN(c2nc3cc(Cl)ccc3o2)CCN1C(=O)c1nc2n(c1-c1ccccc1)CCCC2` [Example 9] belongs 49.6%.
Turning to `C[C@@H]1CCN(c2ccc(C(F)(F)F)cn2)CCN1C(=O)c1c(-c2ccccc2)nn2ccccc12` [Example 17], the inhibition at 1 µM is 96.3%.
Regarding `C[C@@H]1CCN(c2ccc(C(F)(F)F)cn2)CCN1C(=O)c1c(-c2ccccc2)nc2ccccn12` [Example 19], the inhibition at 1 µM turned out to be 94.5%.
For the molecule `COc1ccc(N2CC[C@@H](C)N(C(=O)c3nn4c(c3-c3ccccc3)COCC4)CC2)nc1` [Example 76], the inhibition at 1 µM worked out at 23%.
Still for that read-out and setting: to `COc1ccc(N2CC[C@@H](C)N(C(=O)c3nn4c(c3-c3ccccc3)OCCC4)CC2)nc1` [Example 79] belongs 45%.

The next assay deals with T2, human orexin-2 receptor (Homo sapiens, UniProt O43614).
T2 construct: expressed in transfected cells; host or cells: CHO cells (G418 selection)
T2 sequence (O43614 1-444): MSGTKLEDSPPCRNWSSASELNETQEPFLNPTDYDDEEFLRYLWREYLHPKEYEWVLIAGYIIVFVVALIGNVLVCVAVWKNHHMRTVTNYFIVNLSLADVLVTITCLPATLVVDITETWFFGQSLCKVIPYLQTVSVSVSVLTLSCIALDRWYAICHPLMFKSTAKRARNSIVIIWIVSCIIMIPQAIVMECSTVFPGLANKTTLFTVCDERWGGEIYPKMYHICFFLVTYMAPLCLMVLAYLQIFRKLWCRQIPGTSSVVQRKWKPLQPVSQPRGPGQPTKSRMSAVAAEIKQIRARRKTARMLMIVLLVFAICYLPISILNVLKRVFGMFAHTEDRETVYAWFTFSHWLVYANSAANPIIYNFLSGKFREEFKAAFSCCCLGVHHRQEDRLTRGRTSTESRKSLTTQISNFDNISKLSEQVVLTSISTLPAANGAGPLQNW
As to the kind of experiment: Intracellular calcium (FLIPR) antagonist assay, CHO cells expressing human orexin-2 receptor, 3 nM orexin-A. The format is cell-based. As to conditions: 1 uM compound, orexin-A 3 nM. As to the method:
as §1, §2
Turning to `Cc1cc(C)nc(N2CC3CN(C(=O)c4c(-c5ccc(F)cc5)nn5c4COCC5)CC3C2)n1` (stereo not shown) [Example 39], the “OX2R % Inh. @ 1uM” value came to 29.13%.

The assay is the same for the next values; noted with them: CHO, 1 uM compound, orexin-A 3 nM, read-out: OX2R % Inh. @ 1uM.
With `C[C@@H]1CCN(c2cnc(C(F)(F)F)cn2)CCN1C(=O)c1nn2c(c1-c1ccccc1)OCCC2` [Example 84], the inhibition at 1 µM was found to be 27%.
Take `C[C@@H]1CCN(c2cnc(C(F)(F)F)cn2)CCN1C(=O)c1c(-c2ccccn2)nn2ccccc12` [Example 87]: the inhibition at 1 µM is 57%.
Same read-out and setting: the same measure for `O=C(c1c(-c2ccccc2F)nn2c1COCC2)N1CC2CN(c3nc4cc(Cl)ccc4o3)CC2C1` (stereo not shown) [Example 51]: 24.3%; for `Cc1cc(C)nc(N2CC[C@@H](C)N(C(=O)c3nn4c(c3-c3ccccc3)COCC4)CC2)n1` [Example 70]: 44%; for `COc1ccc(N2CC[C@@H](C)N(C(=O)c3c(-c4ccccc4)nc4ccccn34)CC2)cn1` [Example 22]: 28.3%.
On to `Cc1cc(C)nc(N2CC[C@@H](C)N(C(=O)c3c(-c4ccccn4)nn4ccccc34)CC2)n1` [Example 75], for which the inhibition at 1 µM is 100%.
Consider `C[C@@H]1CCN(c2ccc(C(F)(F)F)cn2)CCN1C(=O)c1c(-c2ccccc2)nn2cccnc12` [Example 66], for which the inhibition at 1 µM is 83%.
On to `Cc1cc(C)nc(N2CC3CN(C(=O)c4c(-c5ccccc5)nc5ccccn45)CC3C2)n1` (stereo not shown) [Example 43], for which the inhibition at 1 µM amounted to 38.4%.
Still for that read-out and setting: to `Cc1cc(C)nc(N2CC3CN(C(=O)c4ccccc4-c4cnc5ccccn45)CC3C2)n1` (stereo not shown) [Example 38] belongs 3.32%.
Still for that read-out and setting: to `COc1ccc(N2CC[C@@H](C)N(C(=O)c3nc4ccccn4c3-c3ccccc3)CC2)nc1` [Example 77] belongs 16%; to `C[C@@H]1CCN(c2nc3cc(Cl)ccc3o2)CCN1C(=O)c1c(-c2ccccc2)nc2n1CCCC2` [Example 6], 33.4%; to `C[C@@H]1CCN(c2nc3cc(Cl)ccc3o2)CCN1C(=O)c1nc2n(c1-c1ccccc1)CCCC2` [Example 9], 12.2%.
For `C[C@@H]1CCN(c2ccc(C(F)(F)F)cn2)CCN1C(=O)c1c(-c2ccccc2)nn2ccccc12` [Example 17], the inhibition at 1 µM stood at 66.7%.
As for `C[C@@H]1CCN(c2ccc(C(F)(F)F)cn2)CCN1C(=O)c1c(-c2ccccc2)nc2ccccn12` [Example 19], the inhibition at 1 µM amounted to 48.2%.
Take `COc1ccc(N2CC[C@@H](C)N(C(=O)c3nn4c(c3-c3ccccc3)COCC4)CC2)nc1` [Example 76]: the inhibition at 1 µM was found to be 11%.
Regarding `COc1ccc(N2CC[C@@H](C)N(C(=O)c3nn4c(c3-c3ccccc3)OCCC4)CC2)nc1` [Example 79], the inhibition at 1 µM was found to be 21%.
